Test system: Donor 3 COP T-Cell Lines
Experiment: ATP proliferation assay (CellTiter Glo), Donor 3 COP T-cell lines, incl. reactivity to non-canonical GA peptides
Format: cell-based, human
Settings: for ATP proliferation assay: Day 14; for Reactivity (proliferation), Mean: Day 54 of culture

In the case of glatiramer acetate [COP], the ATP proliferation assay (165-D11C, 10 μg/mL, control 13302) is reported as 82759 RLU, the ATP proliferation assay (165-E3C, 10 μg/mL, control 12219) is reported as 69893 RLU and the ATP proliferation assay (165-E9C, 10 μg/mL, control 22512) is reported as 98168 RLU. It also gave an ATP proliferation assay (165-F3C, 10 μg/mL, control 13157) of 93437 RLU, an ATP proliferation assay (165-F4C, 10 μg/mL, control 13598) of 96289 RLU and an ATP proliferation assay (165-F6C, 10 μg/mL, control 23457) of 135516 RLU. For the same substance, the ATP proliferation assay (165-F9C, 10 μg/mL, control 19736) was 145768 RLU, the “Reactivity (proliferation), Mean” value (T-cell line 165-B6C, 1 μg/mL antigen, No Antigen 2358) was 3878 RLU and the “Reactivity (proliferation), Mean” value (T-cell line 165-B6C, 3 μg/mL antigen, No Antigen 2358) was 21455 RLU. For the same substance, the “Mean, ATP proliferation assay” value (T-cell line 165-B6C, 3 μg/mL, Day 46, after 3 days) was 29815 RLU, the “Reactivity (proliferation), Mean” value (T-cell line 165-B6C, 10 μg/mL antigen, No Antigen 2358) was 32197 RLU and the “Mean, ATP proliferation assay” value (T-cell line 165-B6C, 10 μg/mL, Day 46, after 3 days) was 34502 RLU. For the same substance, the “Reactivity (proliferation), Mean” value (T-cell line 165-B6C, 100 μg/mL antigen, No Antigen 2358) was 7969 RLU, the “Mean, ATP proliferation assay” value (T-cell line 165-B6C, Day 32, 10 μg/mL) was 952 RLU and the “Reactivity (proliferation), Mean” value (T-cell line 165-B10C, 1 μg/mL antigen, No Antigen 2234) was 2117 RLU. For the same substance, the “Reactivity (proliferation), Mean” value (T-cell line 165-B10C, 3 μg/mL antigen, No Antigen 2234) was 2519 RLU, the “Mean, ATP proliferation assay” value (T-cell line 165-B10C, 3 μg/mL, Day 46, after 3 days) was 8450 RLU and the “Reactivity (proliferation), Mean” value (T-cell line 165-B10C, 10 μg/mL antigen, No Antigen 2234) was 6701 RLU. The “Mean, ATP proliferation assay” value (T-cell line 165-B10C, 10 μg/mL, Day 46, after 3 days) was 19792 RLU, the “Reactivity (proliferation), Mean” value (T-cell line 165-B10C, 100 μg/mL antigen, No Antigen 2234) was 6215 RLU and the “Proliferation (luminescent ATP assay), Mean” value (T-cell line 165-C4C, 1 μg/mL antigen, Day 66 of culture, 0 μg/mL 1881) was 2357. The “Mean, ATP proliferation assay” value (T-cell line 165-C4C, 1 μg/mL, Day 39) was 11653, the “Proliferation (luminescent ATP assay), Mean” value (T-cell line 165-C4C, 3 μg/mL antigen, Day 66 of culture, 0 μg/mL 1881) was 7913 and the “Mean, ATP proliferation assay” value (T-cell line 165-C4C, 3 μg/mL, Day 39) was 28474. The “Proliferation (luminescent ATP assay), Mean” value (T-cell line 165-C4C, 10 μg/mL antigen, Day 66 of culture, 0 μg/mL 1881) was 74558, the “Mean, ATP proliferation assay” value (T-cell line 165-C4C, 10 μg/mL, Day 39) was 28262 and the “Mean, ATP proliferation assay” value (T-cell line 165-C7C, 1 μg/mL, Day 39) was 3670. For the same substance, the “Mean, ATP proliferation assay” value (T-cell line 165-C7C, 3 μg/mL, Day 39) was 16527, the “Mean, ATP proliferation assay” value (T-cell line 165-C7C, 10 μg/mL, Day 39) was 40194 and the “Mean, ATP proliferation assay” value (T-cell line 165-D2C, 1 μg/mL, Day 39) was 3955. The “Mean, ATP proliferation assay” value (T-cell line 165-D2C, 3 μg/mL, Day 39) was 7378, the “Mean, ATP proliferation assay” value (T-cell line 165-D2C, 10 μg/mL, Day 39) was 14239 and the “Reactivity (proliferation), Mean” value (T-cell line 165-D3C, 1 μg/mL antigen, No Antigen 8319) was 22689 RLU. The “Mean, ATP proliferation assay” value (T-cell line 165-D3C, 1 μg/mL, Day 46, after 3 days) was 1248 RLU, the “Reactivity (proliferation), Mean” value (T-cell line 165-D3C, 3 μg/mL antigen, No Antigen 8319) was 50369 RLU and the “Mean, ATP proliferation assay” value (T-cell line 165-D3C, 3 μg/mL, Day 46, after 3 days) was 79792 RLU. For the same substance, the “Reactivity (proliferation), Mean” value (T-cell line 165-D3C, 10 μg/mL antigen, No Antigen 8319) was 52151 RLU, the “Mean, ATP proliferation assay” value (T-cell line 165-D3C, 10 μg/mL, Day 46, after 3 days) was 86270 RLU and the “Reactivity (proliferation), Mean” value (T-cell line 165-D3C, 100 μg/mL antigen, No Antigen 8319) was 10140 RLU. The “Mean, ATP proliferation assay” value (T-cell line 165-D3C, Day 32, 10 μg/mL) was 3362 RLU, the “Reactivity (proliferation), Mean” value (T-cell line 165-D11C, 1 μg/mL antigen, No Antigen 4571) was 3410 RLU and the “Mean, ATP proliferation assay” value (T-cell line 165-D11C, 1 μg/mL, Day 46, after 3 days) was 486 RLU. For the same substance, the “Reactivity (proliferation), Mean” value (T-cell line 165-D11C, 3 μg/mL antigen, No Antigen 4571) was 6618 RLU, the “Mean, ATP proliferation assay” value (T-cell line 165-D11C, 3 μg/mL, Day 46, after 3 days) was 19410 RLU and the “Reactivity (proliferation), Mean” value (T-cell line 165-D11C, 10 μg/mL antigen, No Antigen 4571) was 15652 RLU. The “Mean, ATP proliferation assay” value (T-cell line 165-D11C, 10 μg/mL, Day 46, after 3 days) was 42017 RLU, the “Reactivity (proliferation), Mean” value (T-cell line 165-D11C, 100 μg/mL antigen, No Antigen 4571) was 12958 RLU and the “Mean, ATP proliferation assay” value (T-cell line 165-D11C, Day 32, 10 μg/mL) was 525 RLU. The “Reactivity (proliferation), Mean” value (T-cell line 165-E3C, 1 μg/mL antigen, No Antigen 2797) was 2592 RLU, the “Mean, ATP proliferation assay” value (T-cell line 165-E3C, 1 μg/mL, Day 46, after 3 days) was 364 RLU and the “Reactivity (proliferation), Mean” value (T-cell line 165-E3C, 3 μg/mL antigen, No Antigen 2797) was 14394 RLU. For the same substance, the “Mean, ATP proliferation assay” value (T-cell line 165-E3C, 3 μg/mL, Day 46, after 3 days) was 23785 RLU, the “Reactivity (proliferation), Mean” value (T-cell line 165-E3C, 10 μg/mL antigen, No Antigen 2797) was 39495 RLU and the “Mean, ATP proliferation assay” value (T-cell line 165-E3C, 10 μg/mL, Day 46, after 3 days) was 51822 RLU. For the same substance, the “Reactivity (proliferation), Mean” value (T-cell line 165-E3C, 100 μg/mL antigen, No Antigen 2797) was 20538 RLU, the “Mean, ATP proliferation assay” value (T-cell line 165-E3C, Day 32, 10 μg/mL) was 3778 RLU and the “Reactivity (proliferation), Mean” value (T-cell line 165-F3C, 1 μg/mL antigen, No Antigen 3150) was 7777 RLU. The “Proliferation (luminescent ATP assay), Mean” value (T-cell line 165-F3C, 1 μg/mL antigen, Day 77 of culture, 0 μg/mL 1563) was 5027, the “Reactivity (proliferation), Mean” value (T-cell line 165-F3C, 3 μg/mL antigen, No Antigen 3150) was 36331 RLU and the “Proliferation (luminescent ATP assay), Mean” value (T-cell line 165-F3C, 3 μg/mL antigen, Day 77 of culture, 0 μg/mL 1563) was 32906. The “Mean, ATP proliferation assay” value (T-cell line 165-F3C, 3 μg/mL, Day 46, after 3 days) was 75407 RLU, the “Reactivity (proliferation), Mean” value (T-cell line 165-F3C, 10 μg/mL antigen, No Antigen 3150) was 44047 RLU and the “Proliferation (luminescent ATP assay), Mean” value (T-cell line 165-F3C, 10 μg/mL antigen, Day 77 of culture, 0 μg/mL 1563) was 62888. For the same substance, the “Mean, ATP proliferation assay” value (T-cell line 165-F3C, 10 μg/mL, Day 46, after 3 days) was 85442 RLU, the “Reactivity (proliferation), Mean” value (T-cell line 165-F3C, 100 μg/mL antigen, No Antigen 3150) was 9932 RLU and the “Mean, ATP proliferation assay” value (T-cell line 165-F3C, Day 32, 10 μg/mL) was 1141 RLU. For the same substance, the “Reactivity (proliferation), Mean” value (T-cell line 165-F6C, 1 μg/mL antigen, No Antigen 2189) was 13418 RLU, the “Reactivity (proliferation), Mean” value (T-cell line 165-F6C, 3 μg/mL antigen, No Antigen 2189) was 38973 RLU and the “Mean, ATP proliferation assay” value (T-cell line 165-F6C, 3 μg/mL, Day 46, after 3 days) was 31382 RLU. For the same substance, the “Reactivity (proliferation), Mean” value (T-cell line 165-F6C, 10 μg/mL antigen, No Antigen 2189) was 39560 RLU, the “Mean, ATP proliferation assay” value (T-cell line 165-F6C, 10 μg/mL, Day 46, after 3 days) was 34071 RLU and the “Reactivity (proliferation), Mean” value (T-cell line 165-F6C, 100 μg/mL antigen, No Antigen 2189) was 4332 RLU. For the same substance, the “Mean, ATP proliferation assay” value (T-cell line 165-F6C, Day 32, 10 μg/mL) was 1484 RLU, the “response in proliferation assay” value (all seven Donor 3 COP T-cell lines tested, Day 54) was “responded well” and the “reactivity in confirmatory ATP proliferation assay” value (six Donor 3 COP lines, Day 32, 10 μg/mL (Table 23)) was “showed reactivity”.

— patent US9995734B2, “Human T cell line assay for evaluating the immunologic identity of glatiramer acetate preparations” (Mylan Inc., priority 2013, dated 2018)
